Data taken from patent US12421216B2, “Voruciclib polymorphs and methods of making and using thereof” (MEI PHARMA, INC., priority 2019, dated 2025).
Where a name gives a salt, the structure may show the parent alone. Read-outs that look alike come from different tables or passages of the source.

Tests used:
[1] = dog, in vivo
Experimental: Each salt form was formulated into tablets with identical formulations. 9 dogs were divided into three group of 3 dogs/group. Each group received one of the following different pre-treatments: • 1. No pretreatment (natural gastric pH—could be acidic or alkaline) • 2. Famotidine (causes alkaline gastric pH) • 3. Pentagastrin (causes acidic gastric pH) The study used a crossover design. Each group of dogs first received pretreatment and was dosed with the Voruciclib HCl salt. After a washout period, the same group of dogs received the same pretreatment and was dosed with the Voruciclib malonate salt. The results were then analyzed for variability. […]
Clinical observations were recorded at least once daily, approximately 1 hour post-Voruciclib dose on dosing days. Body weight measurements were recorded for randomization, prior to dose administration (Day 1 and 8), and on the last day of the washout period following Phase 1 (Day 7). […]
Pharmacokinetic Analysis: Pharmacokinetic (PK) analyses were performed on the individual plasma concentration versus time data for Voruciclib using Phoenix WinNonlin non-compartmental analysis. To evaluate drug absorption, the PK parameter C max (maximum plasma concentration) was measured.
For each dog, the actual administered dose of voruciclib free base was calculated on a mg/kg basis, using the dog body weight data. […]

[2] = Quantitative solubility determination of voruciclib malonate after the thermocycling experiments (UPLC); format: physicochemical
Experimental: Moreover, after the thermocycling experiments, an aliquot of the mother liquor was taken and analyzed by UPLC to determine the API solubility. After that, the solutions were evaporated under vacuum (5 mbar) and the dry solids were analyzed by HT-XRPD. The solids were then exposed to accelerated aging conditions (2 days at 40° C./75% RH) followed by HT-XRPD re-analysis. Suspensions of amorphous voruciclib malonate salt were prepared in 24 solvents. After the temperature profile, an aliquot of mother liquor was taken, filtered and analyzed by UPLC to determine the API solubility. A small aliquot of mother liquor was taken and filtered using 0.2 μM PTFE syringe filters. The concentration of solute was determined by UPLC analysis. After that, the solutions were evaporated under vacuum (5 mbar) and the dry solids were analyzed by HT-XRPD. The solids were then exposed to accelerated aging conditions (2 days at 40° C./75% RH) followed by HT-XRPD re-analysis.

[3] = Dynamic Vapor Sorption (DVS) hygroscopicity; format: physicochemical; details: for Water uptake: 25° C./80% RH; for Hygroscopicity classification: European Pharmacopoeia classification, water uptake at 25° C./80% RH; for Solid form recovered after DVS analysis: XRPD after sorption-desorption-sorption cycle
Experimental: (§1) Differences in hygroscopicity (moisture uptake) of the various forms of a solid material provided a measure of their relative stability at increasing relative humidity. Moisture sorption isotherms of small samples were obtained using a DVS-1 system from Surface Measurement Systems (London, UK); this instrument is suitable for use with a few milligrams of sample, with an accuracy of 0.1 μg. The relative humidity was varied during sorption-desorption-sorption (45-95-0-45% RH) at a constant temperature of 25° C. Weight equilibration per step was set at dm/dt <0.0002 for a minimum of 1 hour or maximum of 6 hours. Afterwards the sample was measured by HT-XRPD.
The hygroscopicity was classified according to the European Pharmacopoeia Hygroscopicity classification.
as §1, with “(40-95-0-40%” for “(45-95-0-45%”
as §1, with “use with as little as a few” for “use with a few”
The hygroscopicity of Mao1 was determined by DVS. The powder was exposed to a RH profile consisting of sorption/desorption/sorption cycles (40-95-0-40% RH) performed at 25° C. The water vapor uptake gained during the sorption half-cycle was 0.75%.

CN1CC[C@H](c2c(O)cc(O)c3c(=O)cc(-c4ccc(C(F)(F)F)cc4Cl)oc23)[C@H]1CO (stereo in doubt) [voruciclib malonate, 2-(2-chloro-4-(trifluoromethyl)phenyl)-5,7-dihydroxy-8-((2S,3R)-2-(hydroxymethyl)-1-methylpyrrolidin-3-yl)-4H-chromen-4-one malonate salt]
Variability of absorption [1]: lower than the hydrochloride salt | solubility ([2]; 1,2-dimethoxyethane, organic solvent or mixture, thermodynamic from solid, 1,2-Dimethoxyethane, read-out: Solubility): 2.3 mg/mL | solubility ([2]; 1,4-dioxane, organic solvent or mixture, thermodynamic from solid, 1,4-Dioxane, read-out: Solubility): 0.9 mg/mL | solubility ([2]; 2-propanol, organic solvent or mixture, thermodynamic from solid, 2-Propanol, read-out: Solubility): 5.1 mg/mL | solubility ([2]; 2-propanol/water (90/10), organic solvent or mixture, thermodynamic from solid, 2-Propanol/water (90/10), read-out: Solubility): 130 mg/mL | solubility ([2]; IPA, acetone, AcN, MEK and 1,2-dimethoxyethane, organic solvent or mixture, thermodynamic from solid, IPA, acetone, AcN, MEK and 1,2-dimethoxyethane, read-out: Solubility classification): 1 to 10 mg/mL | solubility ([2]; THF, water and EtOH, water, thermodynamic from solid, THF, water and EtOH, read-out: Solubility classification): 10 to 33 mg/mL | solubility ([2]; acetone, organic solvent or mixture, thermodynamic from solid, Acetone, read-out: Solubility): 5 mg/mL | solubility ([2]; acetone/water (90/10), organic solvent or mixture, thermodynamic from solid, Acetone/water (90/10), read-out: Solubility): 245 mg/mL | solubility ([2]; acetone/water (90/10, v/v) and IPA/water (90/10, v/v), organic solvent or mixture, thermodynamic from solid, acetone/water (90/10, v/v) and IPA/water (90/10, v/v), read-out: Solubility classification): 100 to 1000 mg/mL | solubility ([2]; acetonitrile, organic solvent or mixture, thermodynamic from solid, Acetonitrile, read-out: Solubility): 3 mg/mL | solubility ([2]; anisole, organic solvent or mixture, thermodynamic from solid, Anisole, read-out: Solubility): < 0.04 mg/mL | solubility ([2]; chloroform, organic solvent or mixture, thermodynamic from solid, Chloroform, read-out: Solubility): 0.5 mg/mL | solubility ([2]; cyclohexane, organic solvent or mixture, thermodynamic from solid, Cyclohexane, read-out: Solubility): < 0.07 mg/mL | solubility ([2]; dichloromethane, organic solvent or mixture, thermodynamic from solid, Dichloromethane, read-out: Solubility): 0.3 mg/mL | solubility ([2]; diethyl ether, organic solvent or mixture, thermodynamic from solid, Diethyl ether, read-out: Solubility): < 0.04 mg/mL | solubility ([2]; ethanol, organic solvent or mixture, thermodynamic from solid, Ethanol, read-out: Solubility): 13.6 mg/mL | solubility ([2]; ethyl acetate, organic solvent or mixture, thermodynamic from solid, Ethyl acetate, read-out: Solubility): 0.3 mg/mL | solubility ([2]; ethyl formate, organic solvent or mixture, thermodynamic from solid, Ethyl formate, read-out: Solubility): 0.4 mg/mL | solubility ([2]; isopropyl acetate, organic solvent or mixture, thermodynamic from solid, Isopropyl acetate, read-out: Solubility): 0.1 mg/mL | solubility ([2]; methanol, organic solvent or mixture, thermodynamic from solid, Methanol, read-out: Solubility): 65.7 mg/mL | solubility ([2]; methanol, organic solvent or mixture, thermodynamic from solid, methanol, read-out: Solubility classification): 33 to 100 mg/mL | solubility ([2]; methyl ethyl ketone, organic solvent or mixture, thermodynamic from solid, Methyl ethyl ketone, read-out: Solubility): 2.9 mg/mL | solubility ([2]; n-heptane, organic solvent or mixture, thermodynamic from solid, n-Heptane, read-out: Solubility): < 0.06 mg/mL | solubility ([2]; organic solvent or mixture, thermodynamic from solid, 1,4-dioxane, chloroform, ethyl formate, DCM, ethyl acetate and isopropyl acetate, read-out: Solubility classification): 0.1 to 1 mg/mL | solubility ([2]; organic solvent or mixture, thermodynamic from solid, toluene, anisole, MTBE, diethyl ether, pentane, cyclohexane and n-heptane, read-out: Solubility classification): < 0.1 mg/mL | solubility ([2]; pentane, organic solvent or mixture, thermodynamic from solid, Pentane, read-out: Solubility): < 0.05 mg/mL | solubility ([2]; tert-butyl methyl ether, organic solvent or mixture, thermodynamic from solid, tert-Butyl methyl ether, read-out: Solubility): < 0.04 mg/mL | solubility ([2]; tetrahydrofuran, organic solvent or mixture, thermodynamic from solid, Tetrahydrofuran, read-out: Solubility): 14.2 mg/mL | solubility ([2]; toluene, organic solvent or mixture, thermodynamic from solid, Toluene, read-out: Solubility): < 0.04 mg/mL | solubility ([2]; water, thermodynamic from solid, Water, read-out: Solubility): 13.6 mg/mL

CN1CC[C@@H](c2c(O)cc(O)c3c(=O)cc(-c4ccc(C(F)(F)F)cc4Cl)oc23)[C@@H]1CO.O=C(O)CC(=O)O [Mao1]
Water uptake gained during the first sorption half-cycle ([3]; DVS, 25° C., 40 to 95% RH): 0.75% | Water uptake ([3]; DVS): 0.15% | Hygroscopicity classification [3]: non-hygroscopic | Solid form recovered after DVS analysis [3]: No solid form conversion was observed

CN1CCC(c2c(O)cc(O)c3c(=O)cc(-c4ccc(C(F)(F)F)cc4Cl)oc23)C1CO.O=P(O)(O)O (stereo not drawn) [Pho1]
Water uptake ([3]; DVS): approximately 5.0% | Hygroscopicity classification [3]: moderately hygroscopic | Solid form recovered after DVS analysis [3]: Pho1 was recovered | Stability against variable humidity conditions ([3]; between 0-95% RH): stable against variable humidity conditions
